Measurements: PMC6893898, “Receptor Interaction Profiles of 4-Alkoxy-Substituted 2,5-Dimethoxyphenethylamines and Related Amphetamines” (Frontiers in Pharmacology, 2019)
Entries after “also recorded” stand apart in the source; their conditions may differ. Read-outs that look alike come from different tables or passages of the source.

Experiments:
[1] = molecular target: T1, human 5-HT2B receptor (Homo sapiens, UniProt P41595); design: method as in Luethi et al., 2018; details: ref Luethi et al., 2018, cited from earlier work
T1 construct: expressed in transfected cells; host or cells: HEK 293

[2] = molecular target: T2, 5-HT1A receptor (Homo sapiens, UniProt P08908); details: cited from earlier work
T2 construct: expressed in transfected cells; host or cells: HEK 293 (membrane preparation)
T2 sequence (P08908 1-422): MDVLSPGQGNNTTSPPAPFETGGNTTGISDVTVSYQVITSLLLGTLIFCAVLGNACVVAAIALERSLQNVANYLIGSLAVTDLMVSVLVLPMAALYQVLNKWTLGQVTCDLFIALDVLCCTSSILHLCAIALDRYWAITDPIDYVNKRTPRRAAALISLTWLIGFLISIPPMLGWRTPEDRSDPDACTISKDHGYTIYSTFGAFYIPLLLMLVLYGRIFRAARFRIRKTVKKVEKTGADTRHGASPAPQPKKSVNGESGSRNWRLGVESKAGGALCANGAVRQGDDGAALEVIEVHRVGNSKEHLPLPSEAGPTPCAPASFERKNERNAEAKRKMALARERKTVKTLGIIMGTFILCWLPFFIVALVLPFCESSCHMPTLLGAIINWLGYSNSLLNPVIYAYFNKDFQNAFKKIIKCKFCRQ

[3] = test system: humans; details: ref Shulgin and Shulgin, 1991, cited from earlier work; for Psychoactivity in humans: at the doses tested
[4] = molecular target: T3, α1A adrenergic receptor (Homo sapiens, UniProt P35348); design: method as in Simmler et al., 2013; details: read-out: α1A Ki ± SD; [3H]prazosin; ref Simmler et al., 2013; cited from earlier work
T3 construct: expressed in transfected cells; host or cells: Chinese hamster ovary cell line (membrane preparation)
T3 sequence (P35348 1-466): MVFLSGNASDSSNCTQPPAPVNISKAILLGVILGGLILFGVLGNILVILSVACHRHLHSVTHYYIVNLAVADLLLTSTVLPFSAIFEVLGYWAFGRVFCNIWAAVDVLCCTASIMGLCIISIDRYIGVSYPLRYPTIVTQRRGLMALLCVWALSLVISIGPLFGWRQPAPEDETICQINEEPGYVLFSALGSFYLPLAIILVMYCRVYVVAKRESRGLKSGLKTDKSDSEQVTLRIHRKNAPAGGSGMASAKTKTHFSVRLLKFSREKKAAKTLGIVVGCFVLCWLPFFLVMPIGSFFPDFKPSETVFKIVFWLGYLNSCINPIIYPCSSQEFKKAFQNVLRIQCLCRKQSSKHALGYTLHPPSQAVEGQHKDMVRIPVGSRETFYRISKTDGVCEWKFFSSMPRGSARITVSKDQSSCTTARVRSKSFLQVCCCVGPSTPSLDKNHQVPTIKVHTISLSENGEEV

[5] = molecular target: T4, hDAT (Homo sapiens, UniProt Q01959); design: expressed in transfected cells; host or cells: HEK 293 (membrane preparation); method as in Simmler et al., 2013; details: [3H]WIN35,428; ref Simmler et al., 2013; read-out: hDAT Ki ± SD; cited from earlier work
[6] = molecular target: T4, hDAT; design: expressed in transfected cells; host or cells: HEK 293 (membrane preparation); details: read-out: DAT uptake inhibition EC50; known low potency in this assay; no reference given; cited from earlier work
[7] = molecular target: T5, mouse TAAR1 (Mus musculus, UniProt Q923Y8); design: method as in Simmler et al., 2013; details: read-out: mouse TAAR1 Ki ± SD; [3H]RO5166017; ref Simmler et al., 2013; cited from earlier work
T5 construct: expressed in transfected cells; host or cells: HEK 293 (membrane preparation)

[8] = molecular target: T6, hNET (Homo sapiens, UniProt P23975); test: Monoamine uptake transporter inhibition, [3H]norepinephrine, HEK 293 cells; details: 10 µM
[9] = molecular target: T7, dopaminergic D2 receptor (Homo sapiens, UniProt P14416); design: method as in Simmler et al., 2013; details: read-out: D2 Ki ± SD; [3H]spiperone; ref Simmler et al., 2013; cited from earlier work
T7 construct: expressed in transfected cells; host or cells: HEK 293 (membrane preparation)

[10] = molecular target: T6, hNET; design: expressed in transfected cells; host or cells: HEK 293 (membrane preparation); method as in Simmler et al., 2013; details: read-out: hNET Ki ± SD; N-methyl-[3H]nisoxetine; ref Simmler et al., 2013; cited from earlier work
[11] = molecular target: T4, hDAT; test: Monoamine uptake transporter inhibition, [3H]dopamine, HEK 293 cells; details: 10 µM
[12] = molecular target: T8, hSERT (Homo sapiens, UniProt P31645); test: Monoamine uptake transporter inhibition, [3H]5-HT, HEK 293 cells; details: 10 µM
[13] = molecular target: T9, rat TAAR1 (Rattus norvegicus, UniProt Q923Y9); design: method as in Simmler et al., 2013; details: read-out: rat TAAR1 Ki ± SD; [3H]RO5166017; ref Simmler et al., 2013; cited from earlier work
T9 construct: expressed in transfected cells; host or cells: HEK 293 (membrane preparation)

[14] = molecular target: T10, α2A adrenergic receptor (Homo sapiens, UniProt P08913); design: method as in Simmler et al., 2013; details: read-out: α2A Ki ± SD; [3H]rauwolscine; ref Simmler et al., 2013; cited from earlier work
T10 construct: expressed in transfected cells; host or cells: Chinese hamster lung cell line (membrane preparation)
T10 sequence (P08913 1-465): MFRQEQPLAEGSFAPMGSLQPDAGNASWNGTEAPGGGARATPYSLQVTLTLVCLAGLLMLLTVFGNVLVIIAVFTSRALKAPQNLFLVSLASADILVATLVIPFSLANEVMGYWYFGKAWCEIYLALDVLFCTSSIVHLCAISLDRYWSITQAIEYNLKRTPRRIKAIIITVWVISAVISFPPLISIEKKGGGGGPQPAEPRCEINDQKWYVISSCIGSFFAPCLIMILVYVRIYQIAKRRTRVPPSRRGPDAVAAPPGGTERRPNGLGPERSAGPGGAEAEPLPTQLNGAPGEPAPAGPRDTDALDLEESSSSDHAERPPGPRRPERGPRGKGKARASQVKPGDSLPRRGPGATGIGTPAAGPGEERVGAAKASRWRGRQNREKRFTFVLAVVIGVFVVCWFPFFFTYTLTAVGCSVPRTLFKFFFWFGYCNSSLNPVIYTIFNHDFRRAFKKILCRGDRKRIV

[15] = test system: head-twitch response; design: method as in Halberstadt et al., 2019; details: ref Halberstadt et al., 2019; cited from earlier work
[16] = molecular target: T9, rat TAAR1; test: Radioligand binding, rat TAAR1 ([3H]RO5166017)
[17] = molecular target: T4, hDAT; test: Radioligand binding, DAT ([3H]WIN35,428); design: expressed in transfected cells; host or cells: HEK 293 (membrane preparation)
[18] = molecular target: T3, α1A adrenergic receptor; test: Radioligand binding, α1A adrenergic receptor ([3H]prazosin)
[19] = molecular target: T6, hNET; test: Radioligand binding, NET (N-methyl-[3H]nisoxetine); design: expressed in transfected cells; host or cells: HEK 293 (membrane preparation)
[20] = molecular target: T5, mouse TAAR1; test: Radioligand binding, mouse TAAR1 ([3H]RO5166017)
[21] = molecular target: T1, human 5-HT2B receptor; test: Activity at the 5-HT2B receptor (FLIPR calcium, HEK 293 cells); type: cell-based
Method: Activity at the 5-HT2B receptor was examined as previously described ([Luethi et al., 2018]). In summary, HEK 293 cells expressing the human 5-HT2B receptor were seeded at a density of 50,000 cells per well in 96-well poly-D-lysine-coated plates overnight at 37°C. The cells were then incubated in growth medium consisting of high glucose Dulbecco’s modified Eagle’s medium (DMEM) (Invitrogen, Zug, Switzerland), 10% fetal calf serum (non-dialyzed, heat-inactivated), 250 mg/l Geneticin and 10 ml/l PenStrep (Gibco), overnight at 37°C. After removal of the growth medium via snap inversion, calcium indicator Fluo-4-solution (100 µl) was injected into each well (Molecular Probes, Eugene, OR, USA) and incubated for 45 min at 31°C. Afterwards, the Fluo-4 solution was removed (snap inversion) and a further 100 µl of the Fluo-4 solution was added and incubated (45 min, 31°C). Thereafter, using the EMBLA cell washer, the cells were washed just before testing with HBSS and 20 mM HEPES and exposed to 100 µl of assay buffer. The well plate was positioned in the FLIPR and while online, 25 µl of the test compounds diluted in assay buffer were added. Concentration-response curves were calculated using nonlinear regression, and EC50 values were obtained. The maximal activity at the receptors was calculated relative to 5-HT activity which was defined as 100%.

[22] = molecular target: T7, dopaminergic D2 receptor; test: Radioligand binding, dopaminergic D2 receptor ([3H]spiperone)
[23] = molecular target: T8, hSERT; test: Radioligand binding, SERT ([3H]citalopram); design: expressed in transfected cells; host or cells: HEK 293 (membrane preparation)
[24] = molecular target: T2, 5-HT1A receptor; test: Radioligand binding, 5-HT1A receptor ([3H]8-OH-DPAT)
[25] = molecular target: T10, α2A adrenergic receptor; test: Radioligand binding, α2A adrenergic receptor ([3H]rauwolscine)

T1 sequence (P41595 whole entry): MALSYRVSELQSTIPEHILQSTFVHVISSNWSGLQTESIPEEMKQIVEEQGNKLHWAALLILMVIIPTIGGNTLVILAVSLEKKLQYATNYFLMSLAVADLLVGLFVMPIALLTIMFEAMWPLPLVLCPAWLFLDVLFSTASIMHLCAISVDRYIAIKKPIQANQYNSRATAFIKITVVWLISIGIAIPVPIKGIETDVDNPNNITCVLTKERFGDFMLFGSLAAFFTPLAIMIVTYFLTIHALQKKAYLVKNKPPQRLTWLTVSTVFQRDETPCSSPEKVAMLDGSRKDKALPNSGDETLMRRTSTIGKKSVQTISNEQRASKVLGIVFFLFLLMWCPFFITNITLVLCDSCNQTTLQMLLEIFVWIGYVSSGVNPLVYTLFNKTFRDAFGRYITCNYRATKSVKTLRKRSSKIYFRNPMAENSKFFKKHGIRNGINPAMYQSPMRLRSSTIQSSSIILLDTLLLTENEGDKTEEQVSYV
T6 sequence (P23975 whole entry): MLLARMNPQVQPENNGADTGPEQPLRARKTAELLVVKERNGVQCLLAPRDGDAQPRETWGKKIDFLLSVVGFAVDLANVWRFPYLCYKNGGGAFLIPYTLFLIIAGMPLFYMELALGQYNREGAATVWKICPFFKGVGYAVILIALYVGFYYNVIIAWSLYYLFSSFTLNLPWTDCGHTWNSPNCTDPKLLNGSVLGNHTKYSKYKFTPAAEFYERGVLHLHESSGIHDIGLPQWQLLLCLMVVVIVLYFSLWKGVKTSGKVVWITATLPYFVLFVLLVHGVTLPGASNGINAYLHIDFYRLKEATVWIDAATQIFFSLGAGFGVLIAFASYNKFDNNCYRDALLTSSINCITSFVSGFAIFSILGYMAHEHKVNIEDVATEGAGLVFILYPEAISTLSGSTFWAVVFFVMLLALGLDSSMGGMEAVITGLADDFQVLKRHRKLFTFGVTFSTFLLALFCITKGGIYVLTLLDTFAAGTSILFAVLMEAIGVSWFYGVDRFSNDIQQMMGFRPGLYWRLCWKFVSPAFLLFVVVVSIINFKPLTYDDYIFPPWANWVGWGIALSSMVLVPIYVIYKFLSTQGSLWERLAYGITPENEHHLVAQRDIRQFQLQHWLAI
T4 sequence (Q01959 whole entry): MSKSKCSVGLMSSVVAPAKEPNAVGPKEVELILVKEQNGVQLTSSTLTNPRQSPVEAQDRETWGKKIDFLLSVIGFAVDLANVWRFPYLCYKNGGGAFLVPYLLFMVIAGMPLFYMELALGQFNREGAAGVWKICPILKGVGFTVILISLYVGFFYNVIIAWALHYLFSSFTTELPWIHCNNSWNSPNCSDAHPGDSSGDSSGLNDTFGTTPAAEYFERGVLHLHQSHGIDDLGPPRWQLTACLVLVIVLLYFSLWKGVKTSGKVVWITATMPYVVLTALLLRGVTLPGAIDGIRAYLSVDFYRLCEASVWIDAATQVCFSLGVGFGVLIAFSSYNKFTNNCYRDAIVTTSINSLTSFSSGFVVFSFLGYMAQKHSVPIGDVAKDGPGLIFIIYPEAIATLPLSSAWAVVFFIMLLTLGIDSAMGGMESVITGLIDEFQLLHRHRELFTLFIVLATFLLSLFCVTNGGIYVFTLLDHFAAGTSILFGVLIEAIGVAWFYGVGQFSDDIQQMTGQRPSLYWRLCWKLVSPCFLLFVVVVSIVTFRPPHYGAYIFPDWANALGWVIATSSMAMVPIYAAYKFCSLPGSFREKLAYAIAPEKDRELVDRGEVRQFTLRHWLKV
T8 sequence (P31645 whole entry): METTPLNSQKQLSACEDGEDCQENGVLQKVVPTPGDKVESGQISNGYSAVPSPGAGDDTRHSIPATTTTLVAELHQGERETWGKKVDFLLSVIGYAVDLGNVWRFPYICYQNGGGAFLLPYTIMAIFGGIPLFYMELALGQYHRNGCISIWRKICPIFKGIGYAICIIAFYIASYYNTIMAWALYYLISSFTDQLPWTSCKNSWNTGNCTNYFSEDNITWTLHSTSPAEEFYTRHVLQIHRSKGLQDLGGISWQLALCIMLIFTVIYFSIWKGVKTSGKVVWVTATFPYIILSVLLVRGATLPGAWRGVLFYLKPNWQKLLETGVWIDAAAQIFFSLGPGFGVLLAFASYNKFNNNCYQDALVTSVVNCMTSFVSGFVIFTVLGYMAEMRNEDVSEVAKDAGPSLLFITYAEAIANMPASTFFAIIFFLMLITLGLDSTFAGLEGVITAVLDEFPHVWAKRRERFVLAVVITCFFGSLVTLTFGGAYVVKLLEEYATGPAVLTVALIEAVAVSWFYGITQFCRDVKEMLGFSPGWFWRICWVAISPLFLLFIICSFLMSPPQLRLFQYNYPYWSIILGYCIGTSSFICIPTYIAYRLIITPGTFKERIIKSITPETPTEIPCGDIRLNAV
T7 sequence (P14416 whole entry): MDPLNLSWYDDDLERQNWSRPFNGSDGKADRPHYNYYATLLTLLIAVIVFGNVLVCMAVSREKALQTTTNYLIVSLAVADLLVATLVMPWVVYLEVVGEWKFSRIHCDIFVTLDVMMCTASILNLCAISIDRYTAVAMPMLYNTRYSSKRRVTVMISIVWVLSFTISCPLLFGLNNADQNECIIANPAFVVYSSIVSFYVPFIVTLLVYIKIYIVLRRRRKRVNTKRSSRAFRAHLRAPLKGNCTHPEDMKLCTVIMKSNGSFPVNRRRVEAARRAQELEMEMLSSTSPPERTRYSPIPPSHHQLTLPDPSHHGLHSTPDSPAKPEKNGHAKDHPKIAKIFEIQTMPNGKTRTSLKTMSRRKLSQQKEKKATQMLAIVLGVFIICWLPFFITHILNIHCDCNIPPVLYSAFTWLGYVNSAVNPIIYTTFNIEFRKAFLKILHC
T5 sequence (Q923Y8 whole entry): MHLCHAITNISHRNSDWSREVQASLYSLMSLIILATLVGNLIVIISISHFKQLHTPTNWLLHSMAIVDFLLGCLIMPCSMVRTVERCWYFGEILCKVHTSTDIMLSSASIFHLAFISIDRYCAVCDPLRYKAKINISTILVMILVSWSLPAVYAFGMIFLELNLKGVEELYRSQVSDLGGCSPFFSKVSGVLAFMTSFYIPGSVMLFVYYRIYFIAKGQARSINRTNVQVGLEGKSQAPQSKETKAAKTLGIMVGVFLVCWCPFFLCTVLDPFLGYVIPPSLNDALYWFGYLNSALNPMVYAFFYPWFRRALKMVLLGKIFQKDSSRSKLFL
T9 sequence (Q923Y9 whole entry): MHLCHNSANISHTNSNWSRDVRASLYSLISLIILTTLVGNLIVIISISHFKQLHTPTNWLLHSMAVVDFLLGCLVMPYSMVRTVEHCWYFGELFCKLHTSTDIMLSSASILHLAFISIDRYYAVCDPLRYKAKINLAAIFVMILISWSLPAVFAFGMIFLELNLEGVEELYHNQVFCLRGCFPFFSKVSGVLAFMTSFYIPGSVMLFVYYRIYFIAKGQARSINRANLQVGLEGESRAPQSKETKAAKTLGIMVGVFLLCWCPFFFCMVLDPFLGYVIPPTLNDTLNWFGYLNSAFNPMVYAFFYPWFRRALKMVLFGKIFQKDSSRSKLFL

## COc1cc(CCN)c(OC)cc1Br [2C-B, 4-bromo-2,5-dimethoxyphenethylamine]
[1]; read-out: h5-HT2B Activation potency EC50 ± SD
  EC50: 0.075 ± 0.014 µM
[1]; relative to 5-HT
  h5-HT2B Activation efficacy max ± SD: 52 ± 26%
[2]; read-out: h5-HT1A Receptor binding Ki ± SD, [3H]8-OH-DPAT, ref Luethi et al., 2018
  Ki: 0.311 ± 0.046 µM

## COc1cc(OC)c(OC)cc1CCN [2C-O-1, 2,4,5-trimethoxyphenethylamine]
[3]
  Psychoactivity in humans: fairly inactive in humans; also recorded: not psychoactive in humans

## COc1cc(OC(C)C)c(OC)cc1CCN [2C-O-4, 2,5-dimethoxy-4-isopropoxyphenethylamine]
[3]
  Psychoactivity in humans: fairly inactive in humans; also recorded: not psychoactive in humans

## CCCCOc1cc(OC)c(CC(C)N)cc1OC (stereo not shown) [MBM, 4-butoxy-2,5-dimethoxyamphetamine]
[3]
  Psychoactivity in humans: no psychoactive effects

## CNC(C)Cc1ccc2c(c1)OCO2 (stereo not shown) [MDMA]
[4]
  Ki: > 6 µM
[5]
  Ki: 6.5 ± 2.5 µM
[6]
  EC50: 17 µM
[7]
  Ki: 2.4 ± 1.1 µM
[8]
  Effect on NE uptake into the cells: markedly reduced
[9]
  Ki: 25.2 ± 2 µM
[10]
  Ki: 30.5 ± 8 µM
[11]
  Effect on DA uptake into the cells: moderately reduced
[12]
  Effect on 5-HT uptake into the cells: markedly reduced
[13]
  Ki: 0.37 ± 0.12 µM
[14]
  Ki: 15 ± 0.2 µM

## CCOc1cc(OC)c(CC(C)N)cc1OC (stereo not shown) [MEM, 2,5-dimethoxy-4-ethoxyamphetamine]
[3]
  Psychoactivity in humans: displayed psychedelic activity
[15]
  Behavioral potency in head-twitch response: equipotent

## CCCOc1cc(OC)c(CC(C)N)cc1OC (stereo not shown) [MPM, 2,5-dimethoxy-4-propoxyampehtamine]
[3]
  Psychoactivity in humans: no psychoactive effects
[15]
  Behavioral potency in head-twitch response: equipotent

## COc1cc(OC)c(OC)cc1CC(C)N (stereo not shown) [TMA-2, 2,4,5-trimethoxyamphetamine]
[16]
  Ki: 3.1 ± 0.1 µM
[17]
  Ki: > 8.5 µM
[18]
  Ki: > 6.5 µM
[3]
  Psychoactivity in humans: displayed psychedelic activity
[3]; EMCDDA, 2004
  Potency in humans relative to 3,4,5-trimethoxyamphetamine (TMA): roughly 6 times
[19]
  Ki: > 8.7 µM
[20]
  Ki: > 4.4 µM
[21]
  EC50: 0.27 µM
[21]; HEK293, relative to 5-HT = 100%, read-out: h5-HT2B Activation efficacy max ± SD
  Emax: 78 ± 5%
[22]
  Ki: > 13 µM
[23]
  Ki: > 7.5 µM
[24]
  Ki: > 17 µM
[25]
  Ki: > 4.7 µM
[15]
  Behavioral potency in head-twitch response: equipotent

## CC(N)Cc1ccccc1 (stereo not shown) [amphetamine]
[2]; read-out: 5-HT1A receptor Ki, ref Simmler et al., 2013
  Ki: 6.7 µM

## COc1cc(CCN)cc(OC)c1OC [mescaline, 3,4,5-trimethoxyphenethylamine]
[3]; oral, humans
  Psychoactive oral dose in humans: > 200 mg
